Laboratory results from patent EP0182152B1, “Antitumor antibiotics (LL-E33288 Complex)” (AMERICAN CYANAMID COMPANY, priority 1984, dated 1986).

Key:
[1] = tested on: Acinetobacter sp.; experiment: in vitro antibacterial activity, agar dilution MIC; type: cell-based
Experimental: (§1) The in vitro antibacterial activity of LL-E33288 components was determined against a spectrum of gram-positive and gram-negative bacteria by a standard agar dilution method. Mueller-Hinton again containing two-fold decreasing concentrations of the antibiotics were poured into petri plates. the agar surfaces were inoculated with 1 to 5 x 10^4 colong forming units of bacteria by means of the steers replicating device.

[2] = tested on: Citrobacter diversus; experiment: in vitro antibacterial activity, agar dilution MIC; type: cell-based; details: Citrobacter diversus K 82-84
Experimental: as §1

[3] = tested on: Citrobacter freundii; experiment: in vitro antibacterial activity, agar dilution MIC; type: cell-based; details: Citrobacter freundii IO 83-13
Experimental: as §1

[4] = tested on: Enterobacter aerogenes; experiment: in vitro antibacterial activity, agar dilution MIC; type: cell-based; details: Enterobacter aerogenes IO 83-44
Experimental: as §1

[5] = tested on: Enterobacter cloacae; experiment: in vitro antibacterial activity, agar dilution MIC; type: cell-based; details: Enterobacter cloacae CMC 84-4
Experimental: as §1

[6] = tested on: Escherichia coli; experiment: in vitro antibacterial activity, agar dilution MIC; type: cell-based
Experimental: as §1

[7] = tested on: Klebsiella pneumoniae; experiment: in vitro antibacterial activity, agar dilution MIC; type: cell-based
Experimental: as §1

[8] = tested on: Morganella morganii; experiment: in vitro antibacterial activity, agar dilution MIC; type: cell-based; details: Morganella morganii IO 83-18
Experimental: as §1

[9] = tested on: Providencia stuartii; experiment: in vitro antibacterial activity, agar dilution MIC; type: cell-based; details: Providencia stuartii CMC 83-82
Experimental: as §1

[10] = tested on: Serratia marcescens; experiment: in vitro antibacterial activity, agar dilution MIC; type: cell-based
Experimental: as §1

[11] = tested on: M5076 reticular cell Sarcoma; experiment: M5076 Sarcoma test; type: in vivo, BDF1 mice; details: Table VIII, i.p. days 1, 5, 9, 13 and 17, control 28.5 days
Experimental: The M5076 reticular cell Sarcoma is propagated as subcutaneous implants in C57B2/6 female mice. In the assays for antitumor activity, BDF1 mice of either sex were inoculated intraperitoneally with 0.5 ml of a 10% tumor brei. LL-E33288 antibiotics were tested in the M5076 system as a complex (Bromo-complex) of all components. Test compounds were administered intraperitoneally on days 1, 5, 9, 13 and 17 relative to tumor inoculation on day zero. The median survival time in days was determined for each drug dose used on day 60 and the ratio of survival time for treated (T)/control (C) animals were calculated. The results of this test appear in Table VIII compared to the results obtained with Cisplatin. If T/C X 100 (%) is 125 or over, the tested compound is considered to have significant anti-tumor activity.

Structure (SMILES): CCN[C@H]1CO[C@@H](O[C@H]2[C@H](O[C@H]3C#CC=CC#C[C@@]4(O)CC(=O)C(NC(=O)OC)=C3/C4=C\CSSSC)O[C@H](C)[C@@H](NO[C@H]3C[C@H](O)[C@H](SC(=O)c4c(C)c(I)c(O[C@@H]5O[C@@H](C)[C@H](O)[C@@H](OC)[C@H]5O)c(OC)c4OC)[C@@H](C)O3)[C@@H]2O)C[C@@H]1OC (stereo in doubt) [LL-E33288γ1-I]
- Minimal Inhibitory Concentration ([1]; Acinetobacter sp. CMC 83-89): 0.12 µg/mL
- Minimal Inhibitory Concentration ([1]; Acinetobacter sp. IO 83-49): 0.06 µg/mL
- Minimal Inhibitory Concentration [2]: 0.25 µg/mL
- Minimal Inhibitory Concentration [3]: 0.12 µg/mL
- Minimal Inhibitory Concentration [4]: 0.50 µg/mL
- Minimal Inhibitory Concentration [5]: 0.50 µg/mL
- Minimal Inhibitory Concentration ([6]; Escherichia coli ATCC 25922): 0.25 µg/mL
- Minimal Inhibitory Concentration ([6]; Escherichia coli CMC 84-11, about 18 hours, 35°C): 0.25 µg/mL
- Minimal Inhibitory Concentration ([6]; Escherichia coli No. 311-(MP)): 0.25 µg/mL
- Minimal Inhibitory Concentration ([7]; Klebsiella pneumoniae AD (MP)): 0.25 µg/mL
- Minimal Inhibitory Concentration ([7]; Klebsiella pneumoniae CMC 84-5): 0.25 µg/mL
- Minimal Inhibitory Concentration [8]: 0.25 µg/mL
- Minimal Inhibitory Concentration [9]: 0.25 µg/mL
- Minimal Inhibitory Concentration ([10]; Serratia marcescens CMC 83-27): 0.25 µg/mL
- Minimal Inhibitory Concentration ([10]; Serratia marcescens F35 (MP)): 0.12 µg/mL

Structure (SMILES): N.N.[Cl][Pt][Cl] [Cisplatin, reference compound]
- Median Survival ([11]; dose 0.25 mg/kg): 45 days
- T/C x 100 ([11]; dose 0.25 mg/kg): 158%
- Median Survival ([11]; dose 0.5 mg/kg): 44.5 days
- T/C x 100 ([11]; dose 0.5 mg/kg): 156%
- Median Survival ([11]; dose 1 mg/kg): 30 days
- T/C x 100 ([11]; dose 1 mg/kg): 105%
